Assay results from paper PMC8981170 (RSC Advances, 2022).
Several values for one entry are separate records, joined by “and”; a condition that tells them apart may be missing. Equal entries are not always repeated.

Assays:
[1] = molecular target: T1, Sirt1 (Homo sapiens, UniProt Q96EB6); assay: Cell-based Sirt1 inhibition in HepG2 cells; details: HepG2, read-out: % Inhibition Sirt1, HepG2 cells, 10 μM, 6 h; n = 3
T1 sequence (Q96EB6 1-747): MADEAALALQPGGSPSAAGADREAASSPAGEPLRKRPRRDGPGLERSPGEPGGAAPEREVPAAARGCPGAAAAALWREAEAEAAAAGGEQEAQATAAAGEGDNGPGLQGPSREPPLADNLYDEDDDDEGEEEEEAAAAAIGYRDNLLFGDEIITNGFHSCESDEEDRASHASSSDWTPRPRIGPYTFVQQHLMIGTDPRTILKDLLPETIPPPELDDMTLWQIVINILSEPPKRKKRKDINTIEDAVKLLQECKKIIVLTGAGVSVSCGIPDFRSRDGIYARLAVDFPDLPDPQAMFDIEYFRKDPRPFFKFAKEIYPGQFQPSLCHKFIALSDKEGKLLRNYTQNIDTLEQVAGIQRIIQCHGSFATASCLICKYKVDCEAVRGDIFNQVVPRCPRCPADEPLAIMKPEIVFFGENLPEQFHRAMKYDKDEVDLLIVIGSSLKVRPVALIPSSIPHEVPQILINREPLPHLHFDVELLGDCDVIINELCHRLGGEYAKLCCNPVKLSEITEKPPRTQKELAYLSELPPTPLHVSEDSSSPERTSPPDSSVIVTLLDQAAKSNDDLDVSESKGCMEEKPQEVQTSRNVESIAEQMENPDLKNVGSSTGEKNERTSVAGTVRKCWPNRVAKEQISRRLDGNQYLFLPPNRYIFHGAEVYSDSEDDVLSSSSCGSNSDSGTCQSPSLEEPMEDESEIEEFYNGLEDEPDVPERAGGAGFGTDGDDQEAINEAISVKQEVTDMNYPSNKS

[2] = molecular target: T1, Sirt1; assay: Enzyme-based Sirt1 inhibition assay at 10 μM; type: biochemical; details: for % inhibition at 10 μM Sirt1: mean of three independent experiments; for inhibition at 10 µM: read-out: % inhibition at 10 μM Sirt1, 10 μM, mean of three independent experiments
[3] = tested on: Sirt2 + Sirt3; assay: Cell-based Sirt2/Sirt3 joint inhibition in HepG2 cells; design: species or system human; details: 10 μM, 6 h
[4] = tested on: MCF7 cells; assay: MTT cell viability assay, MCF7; type: cell-based, human; details: 1-400 μM, 24 h
[5] = molecular target: T1, Sirt1; assay: Concentration-dependent Sirt1 inhibition
[6] = tested on: Ac-p53 in HepG2 cells; assay: Western blotting for acetylated p53; type: cell-based, human; details: 25 μM, 48 h, western blot
[7] = tested on: HepG2 cells; assay: MTT cell viability assay, HepG2; type: cell-based, human; details: 1-400 μM, 24 h
[8] = joint inhibition of Sirt2 and Sirt3, n = 3, 10 µM

Compound	inhibition at 10 µM [1] [%]	% inhibition at 10 μM Sirt1 [2] [%]	inhibition at 10 µM [2] [%]	further results
COc1ccc(-c2nc3cc(C(=O)N[C@@H](C)C(=O)O)ccc3n2C2CCCCC2)cc1 [Compound 7a]	< 1	88.03	> 80	–
COc1ccc(-c2nc3cc(C(=O)N[C@H](C(=O)O)C(C)C)ccc3n2C2CCCCC2)cc1 [Compound 7b]	< 1	88.18	> 80	–
COc1ccc(-c2nc3cc(C(=O)N[C@@H](CC(C)C)C(=O)O)ccc3n2C2CCCCC2)cc1 [Compound 7c]	3.24 ± 0.27	86.34	> 80	% Inhibition Sirt2 + Sirt3 ([3]; joint inhibition of Sirt2 and Sirt3, n = 3): 5.21 ± 0.78%
COc1ccc(-c2nc3cc(C(=O)N[C@@H](Cc4c[nH]c5ccccc45)C(=O)O)ccc3n2C2CCCCC2)cc1 [Compound 7d]	≥ 30	89.99	> 80	Effect on MCF7 cell viability [4]: continuous and comparatively higher decrease in cell viability with increasing inhibitor concentration; IC50 [5]: 0.77 ± 0.04 µM; % Inhibition Sirt2 + Sirt3 [3, 8]: 19% and 20% and 19.89 ± 0.89%; Ac-p53 levels in HepG2 cells [6]: increased the Ac-p53 levels in HepG2 cells comparable to the positive control; Effect on HepG2 cell viability [7]: continuous decrease in cell viability with increasing inhibitor concentration
C[C@H](NC(=O)c1ccc2c(c1)nc(-c1ccc(F)cc1)n2C1CCCCC1)C(=O)O [Compound 7e]	–	–	< 30	–
CC(C)[C@H](NC(=O)c1ccc2c(c1)nc(-c1ccc(F)cc1)n2C1CCCCC1)C(=O)O [Compound 7f]	–	–	< 30	–
CC(C)C[C@H](NC(=O)c1ccc2c(c1)nc(-c1ccc(F)cc1)n2C1CCCCC1)C(=O)O [Compound 7g]	< 1	–	80.8	–
O=C(N[C@@H](Cc1c[nH]c2ccccc12)C(=O)O)c1ccc2c(c1)nc(-c1ccc(F)cc1)n2C1CCCCC1 [Compound 7h]	< 1	–	86.8	–
O=C(N[C@@H](Cc1c[nH]c2ccccc12)C(=O)O)c1ccc2c(c1)nc(-c1c(F)cccc1Cl)n2C1CCCCC1 [Compound 7l]	–	–	< 30	–
COc1ccc(-c2n[nH]cc2C=C2SC(=S)N([C@@H](C)C(=O)O)C2=O)cc1 [Compound 13b]	–	–	< 30	–
COc1ccc(-c2n[nH]cc2C=C2SC(=S)N([C@@H](Cc3ccccc3)C(=O)O)C2=O)cc1 [Compound 13c]	–	–	< 30	–
COc1ccc(-c2n[nH]cc2C=C2SC(=S)N([C@@H](Cc3c[nH]c4ccccc34)C(=O)O)C2=O)cc1 [Compound 13d]	≥ 30	90.64	> 80	Effect on MCF7 cell viability [4]: no significant changes in cell viability; IC50 [5]: 0.71 ± 0.03 µM; % Inhibition Sirt2 + Sirt3 [3, 8]: 6% and 6.04 ± 0.91%; Ac-p53 levels in HepG2 cells [6]: no major change
C[C@@H](C(=O)O)N1C(=O)C(=Cc2c[nH]nc2-c2cc(F)cc(F)c2)SC1=S [Compound 13f]	–	–	< 30	–
O=C(O)[C@H](Cc1ccccc1)N1C(=O)C(=Cc2c[nH]nc2-c2cc(F)cc(F)c2)SC1=S [Compound 13g]	–	–	< 30	–
O=C(O)[C@H](Cc1c[nH]c2ccccc12)N1C(=O)C(=Cc2c[nH]nc2-c2cc(F)cc(F)c2)SC1=S [Compound 13h]	≥ 30	89.15	> 80	Effect on MCF7 cell viability [4]: no significant changes in cell viability; IC50 [5]: 0.66 ± 0.02 µM; % Inhibition Sirt2 + Sirt3 [3, 8]: 10% and 9.53 ± 0.65%; Ac-p53 levels in HepG2 cells [6]: no major change; Effect on HepG2 cell viability [7]: very less decrease in cell viability
C[C@@H](C(=O)O)N1C(=O)C(=Cc2c[nH]nc2-c2ccc([N+](=O)[O-])cc2)SC1=S [Compound 13j]	–	–	< 30	–
O=C(O)[C@H](Cc1ccccc1)N1C(=O)C(=Cc2c[nH]nc2-c2ccc([N+](=O)[O-])cc2)SC1=S [Compound 13k]	–	–	< 30	–
O=C(O)[C@H](Cc1c[nH]c2ccccc12)N1C(=O)C(=Cc2c[nH]nc2-c2ccc([N+](=O)[O-])cc2)SC1=S [Compound 13l]	≥ 30	89.64	> 80	Effect on MCF7 cell viability [4]: no significant changes in cell viability; IC50 [5]: 0.73 ± 0.06 µM; % Inhibition Sirt2 + Sirt3 [3, 8]: 9% and 9.47 ± 0.92%; Ac-p53 levels in HepG2 cells [6]: no major change; Effect on HepG2 cell viability [7]: very less decrease in cell viability
